# Active and inactive are the calls of the source. The rule behind the calls is not given here.
# Legend:
# U-251 [1] = assay: Effect on phosphorylated-[…] protein expression in human U-251 cells at 1 to 5 uM measured after 48 hrs by Western blot analysis; type: functional, cell-based; settings: dose 1-5 µM
# U-251 [2] = assay: Induction of apoptosis in human U-251 cells assessed as early apoptotic cells at 1 uM measured after 48 hrs by Annexin V/PI analysis (reference value: 3.1%); type: functional
# U-251 [3] = assay: Induction of apoptosis in human U-251 cells assessed as necrotic cells at 5 uM measured after 48 hrs by Annexin V/PI analysis (reference value: 0%); type: functional
# U-251 [4] = assay: Induction of apoptosis in human U-251 cells assessed as increase in p53 expression measured after 48 hrs by Western blot analysis; type: functional, cell-based; settings: dose 1-5 µM
# U-251 [5] = assay: Induction of apoptosis in human U-251 cells assessed as viable cells at 2.5 uM measured after 48 hrs by Annexin V/PI analysis (reference value: 96.2%); type: functional; settings: read-out: Activity
# U-251 [6] = assay: Increase in BCL2 homologous antagonist/killer (Bak) expression human U-251 cells measured at 1 to 5 uM after 48 hrs by Western blot analysis; type: functional, cell-based; settings: dose 1-5 µM
# U-251 [7] = assay: Effect on RIPK3 protein expression in human U-251 cells at 1 to 5 uM measured after 48 hrs by Western blot analysis; type: functional, cell-based; settings: dose 1-5 µM
# U-251 [8] = assay: Anti-GBM effect in human U-251 cells xenografted in BALB/c mouse model assessed as inhibition of tumor growth at 60 mg/kg, ip treated for 5 weeks; type: functional, organism-based
# [9] = Toxicity in BALB/c mouse xenografted with human U-251 cells assessed as pathological changes in spleen at 60 mg/kg, ip treated for 5 weeks by hematoxylin and eosin staining based assay; type: organism-based; settings: in vivo, 840 h
# [10] = Permeability coefficient of compound by lipid-PAMPA assay; type: ADME; settings: read-out: Peff
# U-251 [11] = assay: Induction of apoptosis in human U-251 cells assessed as early apoptotic cells at 5 uM measured after 48 hrs by Annexin V/PI analysis (reference value: 3.1%); type: functional
# U-251 [12] = assay: Increase in acetylated p53 level in human U-251 cells at 1 to 5 uM by Western blot analysis; type: functional, cell-based; settings: dose 1-5 µM
# [13] = Toxicity in BALB/c mouse xenografted with human U-251 cells assessed as toxicity at 60 mg/kg, ip treated for 5 weeks; type: organism-based; settings: in vivo, 840 h
# U-251 [14] = assay: Effect on RIPK1 protein expression in human U-251 cells at 1 to 5 uM measured after 48 hrs by Western blot analysis; type: functional, cell-based; settings: dose 1-5 µM
# U-251 [15] = assay: Induction of apoptosis in human U-251 cells assessed as increase in caspase-3 expression measured after 48 hrs by Western blot analysis; type: functional, cell-based; settings: dose 1-5 µM
# U-251 [16] = assay: Induction of apoptosis in human U-251 cells assessed as late apoptotic cells at 5 uM measured after 48 hrs by Annexin V/PI analysis (reference value: 0.7%); type: functional
# U-251 [17] = assay: Inhibition of colony formation in human U-251 cells; type: functional, cell-based
# U-251 [18] = assay: Increase in acetylated p53 level in SIRT1 overexpressed human U-251 cells at 1 to 5 uM by Western blot analysis; type: functional, cell-based; settings: dose 1-5 µM
# U-87 MG = assay: Antiproliferative activity against human U87 cells assessed as cell viability measured after 72 hrs by MTT assay; type: functional, cell-based, U-87MG ATCC
# U-251 [19] = assay: Effect on GSDMD protein expression in human U-251 cells at 1 to 5 uM measured after 48 hrs by Western blot analysis; type: functional, cell-based; settings: dose 1-5 µM
# U-251 [20] = assay: Antiproliferative activity against human U-251 cells assessed as cell viability measured after 72 hrs by MTT assay; type: functional, cell-based; settings: U-251, 72 h
# U-251 [21] = assay: Induction of apoptosis in human U-251 cells assessed as viable cells at 5 uM measured after 48 hrs by Annexin V/PI analysis (reference value: 96.2%); type: functional; settings: read-out: Activity
# U-251 [22] = assay: Decrease in SIRT1 gene expression in human U-251 cells at 5 uM measured after 48 hrs incubation by RT-qPCR analysis; type: functional, cell-based
# [23] = Toxicity in BALB/c mouse xenografted with human U-251 cells assessed as pathological changes in lung at 60 mg/kg, ip treated for 5 weeks by hematoxylin and eosin staining based assay; type: organism-based; settings: in vivo, 840 h
# U-251 [24] = assay: Effect on ZBP1 protein expression in human U-251 cells at 1 to 5 uM measured after 48 hrs by Western blot analysis; type: functional, cell-based; settings: dose 1-5 µM
# U-251 [25] = assay: Induction of apoptosis in human U-251 cells assessed as increase in BCL2 homologous antagonist/killer (Bak) expression measured after 48 hrs by Western blot analysis; type: functional, cell-based; settings: dose 1-5 µM
# [26] = Toxicity in BALB/c mouse xenografted with human U-251 cells assessed as body weight change at 60 mg/kg, ip treated for 5 weeks; type: organism-based; settings: in vivo, 840 h
# U-251 [27] = assay: Decrease in SIRT1 protein expression in human U-251 cells at 1 to 5 uM by Western blot analysis; type: functional, cell-based; settings: dose 1-5 µM
# [28] = Toxicity in BALB/c mouse xenografted with human U-251 cells assessed as pathological changes in liver at 60 mg/kg, ip treated for 5 weeks by hematoxylin and eosin staining based assay; type: organism-based; settings: in vivo, 840 h
# U-251 [29] = assay: Induction of apoptosis in human U-251 cells assessed as necrotic cells at 1 uM measured after 48 hrs by Annexin V/PI analysis (reference value: 0%); type: functional
# U-251 [30] = assay: Induction of apoptosis in human U-251 cells assessed as necrotic cells at 2.5 uM measured after 48 hrs by Annexin V/PI analysis (reference value: 0%); type: functional
# U-251 [31] = assay: Anti-GBM effect in human U-251 cells xenografted in BALB/c mouse model assessed as reduction in number of Ki67-positive cells in the tumor at 60 mg/kg, ip treated for 5 weeks by immunohistochemical staining analysis; type: functional, organism-based
# [32] = Toxicity in BALB/c mouse xenografted with human U-251 cells assessed as pathological changes in kidney at 60 mg/kg, ip treated for 5 weeks by hematoxylin and eosin staining based assay; type: organism-based; settings: in vivo, 840 h
# U-251 [33] = assay: Induction of apoptosis in human U-251 cells assessed as late apoptotic cells at 1 uM measured after 48 hrs by Annexin V/PI analysis (reference value: 0.7%); type: functional
# U-251 [34] = assay: Induction of apoptosis in human U-251 cells assessed as early apoptotic cells at 2.5 uM measured after 48 hrs by Annexin V/PI analysis (reference value: 3.1%); type: functional
# U-251 [35] = assay: Effect on caspase 8 protein expression in human U-251 cells at 1 to 5 uM measured after 48 hrs by Western blot analysis; type: functional, cell-based; settings: dose 1-5 µM
# [36] = Toxicity in BALB/c mouse xenografted with human U-251 cells assessed as pathological changes in heart at 60 mg/kg, ip treated for 5 weeks by hematoxylin and eosin staining based assay; type: organism-based; settings: in vivo, 840 h
# U-251 [37] = assay: Increase in caspase 3 expression human U-251 cells measured at 1 to 5 uM after 48 hrs by Western blot analysis; type: functional, cell-based; settings: dose 1-5 µM
# U-251 [38] = assay: Induction of apoptosis in human U-251 cells assessed as late apoptotic cells at 2.5 uM measured after 48 hrs by Annexin V/PI analysis (reference value: 0.7%); type: functional
# U-251 [39] = assay: Induction of apoptosis in human U-251 cells assessed as viable cells at 1 uM measured after 48 hrs by Annexin V/PI analysis (reference value: 96.2%); type: functional; settings: read-out: Activity
smiles,measurement,setting,value
COc1cc(C(=O)/C=C/c2ccc(C(=O)N3CCN(Cc4ccccc4)C34COC4)cc2)cc(OC)c1OC,Activity,U-251 [1],inactive
same,Activity,U-251 [2],11.8%
same,Activity,U-251 [3],0.1%
same,Activity,U-251 [4],Dose-Dependent Effect
same,viability at 2.5 µM,U-251 [5],74.2%
same,Activity,U-251 [6],inactive
same,Activity,U-251 [7],inactive
same,Activity,U-251 [8],Active
same,Activity,[9],Non-Toxic
same,Papp,[10],13.1 ×10⁻⁶ cm/s
same,Activity,U-251 [11],17.7%
same,Activity,U-251 [12],Active
same,Activity,[13],Non-Toxic
same,Activity,U-251 [14],inactive
same,Activity,U-251 [15],Dose-Dependent Effect
same,Activity,U-251 [16],67.5%
same,inhibition,U-251 [17],Dose-Dependent Effect
same,Activity,U-251 [18],inactive
same,IC50,U-87 MG,2100 nM
same,Activity,U-251 [19],inactive
same,IC50,U-251 [20],900 nM
same,viability at 5 µM,U-251 [21],14.7%
same,Activity,U-251 [22],Active
same,Activity,[23],Non-Toxic
same,Activity,U-251 [24],inactive
same,Activity,U-251 [25],Dose-Dependent Effect
same,Activity,[26],Non-Toxic
same,Activity,U-251 [27],Active
same,Activity,[28],Non-Toxic
same,Activity,U-251 [29],0.2%
same,Activity,U-251 [30],0.2%
same,Activity,U-251 [31],Active
same,Activity,[32],Non-Toxic
same,Activity,U-251 [33],8.2%
same,Activity,U-251 [34],16.4%
same,Activity,U-251 [35],inactive
same,Activity,[36],Non-Toxic
same,Activity,U-251 [37],inactive
same,Activity,U-251 [38],9.2%
same,viability at 1 µM,U-251 [39],79.8%

# — ChEMBL document CHEMBL5620401, “Design, synthesis, and biological evaluation of novel spirocyclic compounds as potential anti-glioblastoma agents” (Eur J Med Chem, 2023)
